{"source": "patent US20070287630A1", "about": "“Moisturizing agent with nutrients” (DriWater, Inc., priority 2006, published 2007)", "settings": "acetic acid acting as a preservative in the gel", "data": [{"smiles": "CC(=O)O", "note": "[acetic acid]", "values": [{"measurement": "effect on gel degradation in soil", "result": "slow gel degradion in soil"}]}]}
